Columns and labels:
[1] = xn = mol fraction of the nth substance listed; conditions: 101 kPa, Liquid; for speed of sound: Frequency=2 MHz, Linear variable-path acoustic interferometer; for mass density: Pycnometric method
[2] = 101 kPa, Liquid; for speed of sound: Frequency=2 MHz, Linear variable-path acoustic interferometer; for mass density: Pycnometric method

CCCCO [butan-1-ol] + CCN(CC)CCO
[1], x2 = 0
Conditions	mass density [kg/m3]	speed of sound [m/s]
293.15 K	809.53	1261.9
303.15 K	802	1224.7
313.15 K	794.7	1188.8

CCN(CC)CCO [(diethylamino)ethanol] + CCCO
[1]
Conditions	mass density, 293.15 K [kg/m3]	mass density, 303.15 K [kg/m3]	mass density, 313.15 K [kg/m3]	speed of sound, 293.15 K [m/s]	speed of sound, 303.15 K [m/s]	speed of sound, 313.15 K [m/s]
x1 = 0.0937	817.5	809.54	801.82	1247.7	1213.2	1178.9
x1 = 0.1994	830.99	822.96	815.1	1269	1234.4	1199.7
x1 = 0.3005	842.11	833.85	825.77	1287.6	1252.7	1217.3
x1 = 0.4048	851.86	843.48	835.1	1305	1269.5	1233.2
x1 = 0.5072	859.98	851.48	842.85	1320.1	1284.1	1247
x1 = 0.61	866.74	858.08	849.33	1333.3	1296.9	1259.2
x1 = 0.7093	872.27	863.47	854.7	1344	1307.3	1269.4
x1 = 0.801	876.7	867.78	858.95	1352.2	1315.3	1277
x1 = 0.9047	881.06	871.91	862.91	1360.1	1322.3	1282.5
x1 = 1	884.37	874.93	865.62	1366.5	1327.3	1285

CCCO [propan-1-ol] + CCN(CC)CCO
[1], x2 = 0
Conditions	mass density [kg/m3]	speed of sound [m/s]
293.15 K	803.76	1227
303.15 K	795.82	1192.5
313.15 K	787.88	1157.7

CCCO [propan-1-ol]
[2]
Conditions	mass density [kg/m3]	speed of sound [m/s]
293.15 K	803.76	1227
303.15 K	795.82	1192.5
313.15 K	787.88	1157.7

Source: the NIST ThermoML archive (doi:10.1016/j.jct.2018.06.007)
